Reference: patent US20260070917A1, “CYCLIN DEPENDENT KINASE DEGRADERS AND METHODS OF USE THEREOF” (Differentiated Therapeutics Inc, priority 2023, published 2026)

Experiments:
Type in all cases: cell-based
CDK2 = target: T1, CDK2 (Homo sapiens, UniProt P24941); experiment: HiBit Assay Protocol for CDK2 (HIBIT protein quantification, degradation); conditions: HEK293-CDK2-Hibit cells, compound treatment for 6 hours; for DC50: ABS DC50
T1 construct: host or cells: HEK293-CDK2-Hibit
In short: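 DC50 comes from a fitted curve of remaining CDK2-HiBiT luminescence, referenced to DMSO-treated cells and medium-only wells. HEK293-CDK2-HiBiT cells, plated the previous night, received compounds in a 10-point, 3-fold series for 6 h before lysis with LgBiT-containing Nano-Glo HiBiT reagent.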

CCNE1 = target: T2, CCNE1 (Homo sapiens, UniProt P24864); experiment: HiBit Assay Protocol for CCNE1 (HIBIT protein quantification, degradation); conditions: HEK293-CCNE1-Hibit cells, compound treatment for 6 hours
T2 construct: host or cells: HEK293-CCNE1-Hibit
T2 sequence (P24864 whole entry): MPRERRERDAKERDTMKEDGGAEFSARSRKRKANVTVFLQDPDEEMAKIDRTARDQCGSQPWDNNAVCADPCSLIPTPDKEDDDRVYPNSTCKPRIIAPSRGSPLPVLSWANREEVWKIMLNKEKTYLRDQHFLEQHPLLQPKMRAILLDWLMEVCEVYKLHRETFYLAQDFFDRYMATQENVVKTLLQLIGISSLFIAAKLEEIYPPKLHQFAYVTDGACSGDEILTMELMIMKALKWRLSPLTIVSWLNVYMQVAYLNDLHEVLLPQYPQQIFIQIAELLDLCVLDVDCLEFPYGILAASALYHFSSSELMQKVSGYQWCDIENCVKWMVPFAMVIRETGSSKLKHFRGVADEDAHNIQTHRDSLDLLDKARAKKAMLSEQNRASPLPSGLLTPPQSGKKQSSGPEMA
In short: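 Degradation readout: lytic Nano-Glo HiBiT luminescence after 6 h exposure of HEK293-CCNE1-HiBiT cells to 10-point, 3-fold serial dilutions. Signal was scaled between medium-only and DMSO-treated wells, and DC50 came from curve fits.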

CDK9 = target: T3, CDK9 (Homo sapiens, UniProt P50750); experiment: HiBit Assay Protocol for CDK9 (HIBIT protein quantification, degradation); conditions: 6 h, HEK293-CDK9-Hibit cells, compound treatment for 6 hours; read-out: CDK9 HIBIT Protein Quantification Maximum
T3 construct: host or cells: HEK293-CDK9-Hibit
T3 sequence (P50750 whole entry): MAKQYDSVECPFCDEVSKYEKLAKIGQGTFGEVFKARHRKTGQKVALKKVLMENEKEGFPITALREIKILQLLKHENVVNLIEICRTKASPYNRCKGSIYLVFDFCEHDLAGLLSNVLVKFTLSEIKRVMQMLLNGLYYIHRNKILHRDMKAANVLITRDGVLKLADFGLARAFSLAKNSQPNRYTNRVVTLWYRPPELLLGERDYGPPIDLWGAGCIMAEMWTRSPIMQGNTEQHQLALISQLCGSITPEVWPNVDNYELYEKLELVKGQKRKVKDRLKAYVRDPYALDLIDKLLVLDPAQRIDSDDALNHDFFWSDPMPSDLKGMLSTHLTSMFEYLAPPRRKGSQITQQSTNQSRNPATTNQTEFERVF
In short: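 Degradation read-out: luminescence after lytic HiBiT/LgBiT detection in HEK293-CDK9-HiBiT cells exposed 6 h to 10-point, 3-fold compound dilutions. Signal scaled between 0.1% DMSO-treated cells and medium alone; DC50 fitted from the curve.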

Structure (SMILES)	CDK2 HIBIT Protein Quantification Maximum (CDK2) [%]	CCNE1 HIBIT Protein Quantification Maximum (CCNE1) [%]	Dmax (CDK9) [%]	DC50 (CDK2) [nM]
CC1CCCC1N1C(=O)C2(CC2)c2cnc(NC3CCN(S(=O)(=O)N4CC5(CCCN(C(=O)CCCCCCCCCc6cccc7c6n(C)c(=O)n7C6CCC(=O)NC6=O)C5)C4)CC3)nc21 (stereo not drawn) [Compound 50]	37	16	17	
CC1CCCC1N1C(=O)C2(CC2)c2cnc(NC3CCN(S(=O)(=O)N4CC5(CCN(C(=O)CCCCCCCCCc6cccc7c6n(C)c(=O)n7C6CCC(=O)NC6=O)CC5)C4)CC3)nc21 (stereo not drawn) [Compound 51]	56	40	41	53
CC1CCCC1N1C(=O)C2(CC2)c2cnc(NC3CCN(S(=O)(=O)N4CCC5(CCN(C(=O)CCCCCCCCCc6cccc7c6n(C)c(=O)n7C6CCC(=O)NC6=O)C5)C4)CC3)nc21 (stereo not drawn) [Compound 52]	56	19	29	2
CC1CCCC1N1C(=O)C2(CC2)c2cnc(NC3CCN(S(=O)(=O)C4CCN(C(=O)CCCCCCCCCc5cccc6c5n(C)c(=O)n6C5CCC(=O)NC5=O)C4)CC3)nc21 (stereo not drawn) [Compound 53]	62	46	36	10
CC1CCCC1N1C(=O)C2(CC2)c2cnc(NC3CCN(S(=O)(=O)N4CC5CN(C(=O)CCc6ccc7c(c6)n(C)c(=O)n7C6CCC(=O)NC6=O)CC5C4)CC3)nc21 (stereo not drawn) [Compound 55]	25	13	8	
CC1CCCC1N1C(=O)C2(CC2)c2cnc(NC3CCN(S(=O)(=O)N4CCC5(CCCN5C(=O)CCc5ccc6c(c5)n(C)c(=O)n6C5CCC(=O)NC5=O)C4)CC3)nc21 (stereo not drawn) [Compound 56]	41	19	15	
CC1CCCC1N1C(=O)C2(CC2)c2cnc(NC3CCN(S(=O)(=O)N4CC5(CCCN(C(=O)CCc6ccc7c(c6)n(C)c(=O)n7C6CCC(=O)NC6=O)C5)C4)CC3)nc21 (stereo not drawn) [Compound 57]	53	22	15	
CC1CCCC1N1C(=O)C2(CC2)c2cnc(NC3CCN(S(=O)(=O)N4CC5(CN(C(=O)CCc6ccc7c(c6)n(C)c(=O)n7C6CCC(=O)NC6=O)C5)C4)CC3)nc21 (stereo not drawn) [Compound 58]	12	10	9	
CC1CCCC1N1C(=O)C2(CC2)c2cnc(NC3CCN(S(=O)(=O)N4CC5(CCN(C(=O)CCc6ccc7c(c6)n(C)c(=O)n7C6CCC(=O)NC6=O)CC5)C4)CC3)nc21 (stereo not drawn) [Compound 59]	46	24	17	
CC1CCCC1N1C(=O)C2(CC2)c2cnc(NC3CCN(S(=O)(=O)N4CCC5(CCN(C(=O)CCc6ccc7c(c6)n(C)c(=O)n7C6CCC(=O)NC6=O)C5)C4)CC3)nc21 (stereo not drawn) [Compound 60]	18	17	28	
CC1CCCC1N1C(=O)C2(CC2)c2cnc(NC3CCN(S(=O)(=O)N4CC(N(C)C(=O)CCCc5ccc6c(c5)n(C)c(=O)n6C5CCC(=O)NC5=O)C4)CC3)nc21 (stereo not drawn) [Compound 61]	60	29	23	3
CC1CCCC1N1C(=O)C2(CC2)c2cnc(NC3CCN(S(=O)(=O)N4CCCC45CCN(C(=O)CCCc4ccc6c(c4)n(C)c(=O)n6C4CCC(=O)NC4=O)C5)CC3)nc21 (stereo not drawn) [Compound 63]	15	2	14	
CC1CCCC1N1C(=O)C2(CC2)c2cnc(NC3CCN(S(=O)(=O)N4CCC5(CCCN5C(=O)CCCc5ccc6c(c5)n(C)c(=O)n6C5CCC(=O)NC5=O)C4)CC3)nc21 (stereo not drawn) [Compound 64]	29	18	17	
CC1CCCC1N1C(=O)C2(CC2)c2cnc(NC3CCN(S(=O)(=O)N4CC5(CCCCN5C(=O)CCCc5ccc6c(c5)n(C)c(=O)n6C5CCC(=O)NC5=O)C4)CC3)nc21 (stereo not drawn) [Compound 65]	30	4	9	
CC1CCCC1N1C(=O)C2(CC2)c2cnc(NC3CCN(S(=O)(=O)N4CC5(CCCN(C(=O)CCCc6ccc7c(c6)n(C)c(=O)n7C6CCC(=O)NC6=O)C5)C4)CC3)nc21 (stereo not drawn) [Compound 66]	39	14	8	
CC1CCCC1N1C(=O)C2(CC2)c2cnc(NC3CCN(S(=O)(=O)N4CC5(CCN(C(=O)CCCc6ccc7c(c6)n(C)c(=O)n7C6CCC(=O)NC6=O)CC5)C4)CC3)nc21 (stereo not drawn) [Compound 68]	38	9	6	
CC1CCCC1N1C(=O)C2(CC2)c2cnc(NC3CCN(S(=O)(=O)N4CC5C4CCN5C(=O)CCCc4ccc5c(c4)n(C)c(=O)n5C4CCC(=O)NC4=O)CC3)nc21 (stereo not drawn) [Compound 69]	13	8	8	
CC1CCCC1N1C(=O)C2(CC2)c2cnc(NC3CCN(S(=O)(=O)N4CC5CN(C(=O)CCCc6ccc7c(c6)n(C)c(=O)n7C6CCC(=O)NC6=O)CC54)CC3)nc21 (stereo not drawn) [Compound 70]	−3	6	15	
CC1CCCC1N1C(=O)C2(CC2)c2cnc(NC3CCN(S(=O)(=O)N4CCCN(C(=O)CCCc5ccc6c(c5)n(C)c(=O)n6C5CCC(=O)NC5=O)CC4)CC3)nc21 (stereo not drawn) [Compound 72]	25	8	42	
CC1CCCC1N1C(=O)C2(CC2)c2cnc(NC3CCN(S(=O)(=O)N4CCCC45CCN(C(=O)CCCCCc4ccc6c(c4)n(C)c(=O)n6C4CCC(=O)NC4=O)C5)CC3)nc21 (stereo not drawn) [Compound 74]	19	29	8	
CC1CCCC1N1C(=O)C2(CC2)c2cnc(NC3CCN(S(=O)(=O)N4CC5(CCCCN5C(=O)CCCCCc5ccc6c(c5)n(C)c(=O)n6C5CCC(=O)NC5=O)C4)CC3)nc21 (stereo not drawn) [Compound 76]	29	20	9	
CC1CCCC1N1C(=O)C2(CC2)c2cnc(NC3CCN(S(=O)(=O)N4CCN(C(=O)CCCCCc5ccc6c(c5)n(C)c(=O)n6C5CCC(=O)NC5=O)CC4)CC3)nc21 (stereo not drawn) [Compound 77]	46	25	40	
CC1CCCC1N1C(=O)C2(CC2)c2cnc(NC3CCN(S(=O)(=O)N4CC5C4CCN5C(=O)CCCCCc4ccc5c(c4)n(C)c(=O)n5C4CCC(=O)NC4=O)CC3)nc21 (stereo not drawn) [Compound 78]	29	17	23	
CC1CCCC1N1C(=O)C2(CC2)c2cnc(NC3CCN(S(=O)(=O)N4CC5CN(C(=O)CCCCCc6ccc7c(c6)n(C)c(=O)n7C6CCC(=O)NC6=O)CC54)CC3)nc21 (stereo not drawn) [Compound 79]	6	16	21	
CC1CCCC1N1C(=O)C2(CC2)c2cnc(NC3CCN(S(=O)(=O)N4CCCN(C(=O)CCCCCc5ccc6c(c5)n(C)c(=O)n6C5CCC(=O)NC5=O)CC4)CC3)nc21 (stereo not drawn) [Compound 80]	24	29	8	
CC1CCCC1N1C(=O)C2(CC2)c2cnc(NC3CCN(S(=O)(=O)C4CCN(C(=O)CCCCCc5ccc6c(c5)n(C)c(=O)n6C5CCC(=O)NC5=O)C4)CC3)nc21 (stereo not drawn) [Compound 81]	50	15	14	8
CC1CCCC1N1C(=O)C2(CC2)c2cnc(NC3CCN(S(=O)(=O)C4CCCN(C(=O)CCCCCc5ccc6c(c5)n(C)c(=O)n6C5CCC(=O)NC5=O)C4)CC3)nc21 (stereo not drawn) [Compound 82]	26	43	11	
CC1CCCC1N1C(=O)C2(CC2)c2cnc(NC3CCN(S(=O)(=O)N4CC5(CCN(C(=O)CCCCCCCc6ccc7c(c6)n(C)c(=O)n7C6CCC(=O)NC6=O)CC5)C4)CC3)nc21 (stereo not drawn) [Compound 83]	29	13	16	
CC1CCCC1N1C(=O)C2(CC2)c2cnc(NC3CCN(S(=O)(=O)C4CCN(C(=O)CCCCCCCc5ccc6c(c5)n(C)c(=O)n6C5CCC(=O)NC5=O)C4)CC3)nc21 (stereo not drawn) [Compound 84]	53	47	30	21
CC1CCCC1N1C(=O)C2(CC2)c2cnc(NC3CCN(S(=O)(=O)C4CCCN(C(=O)CCCCCCCc5ccc6c(c5)n(C)c(=O)n6C5CCC(=O)NC5=O)C4)CC3)nc21 (stereo not drawn) [Compound 85]	17	41	14	
